Patent US20180263975A1, “Methods Of Treating Motor And Movement Disorders And Side Effects Thereof Associated with Parkinson's Disease Treatments” (AMARANTUS BIOSCIENCE HOLDINGS, INC., priority 2015, published 2018)
Entries after “also recorded” stand apart in the source; their conditions may differ.

Key:
dopamine receptors = details: cited from earlier work
[1] = test system: Parkinson's patients with L-DOPA induced dyskinesias; experiment: Clinical Dyskinesia Rating Scale (CDRS) rating of L-DOPA induced dyskinesia after a levodopa challenge dose; type: in vivo, human
Description: (§1) This example describes a multicenter, randomized, double-blind, placebo-controlled, dose finding study of oral eltoprazine in Parkinson's patients with L-DOPA induced dyskinesias, in a levodopa challenge-dose setting in Parkinson's Disease. A total of 22 patients participated in the study, out of which 18 patients fulfilled the protocol in terms of eligibility, interventions, and outcome assessment.
During the first visit, patients underwent screening for inclusion/exclusion criteria and safety assessments. Symptoms of parkinsonism, depression, and anxiety were assessed, and screening for significant L-DOPA dyskinesias were conducted using a challenge dose (150%) of L-DOPA. Subjects who were taking a prohibited medication were required to complete a washout period of appropriate length, as determined by the investigator. […]
(§2) During each of five visits, and after a two-hour fast, each patient received a challenge dosage (150%—up to a maximum of 250 mg) of levodopa. […] The patients were periodically recorded for 180 minutes after treatment, and the videos were evaluated in a blinded manner. […]
(§3) Filming occurred 30 minutes prior to, and every 30 minutes up to 180 minutes after a challenge test of L-DOPA and study medication. […] Videotaped records of each sequence were assessed by separate individual qualified raters at both of the two clinical centers. […]

[2] = test system: Parkinson's patients with L-DOPA induced dyskinesias; experiment: Rush Dyskinesia Rating Scale AUC after a levodopa challenge dose; type: in vivo, human; details: 5 mg dose
Description: This example describes a multicenter, randomized, double-blind, placebo-controlled, dose finding study of oral eltoprazine in Parkinson's patients with L-DOPA induced dyskinesias, in a levodopa challenge-dose setting in Parkinson's Disease. A total of 22 patients participated in the study, out of which 18 patients fulfilled the protocol in terms of eligibility, interventions, and outcome assessment. […]
During each of five visits, and after a two-hour fast, each patient received a challenge dosage (150%—up to a maximum of 250 mg) of levodopa. […] The patients were periodically recorded for 180 minutes after treatment, and the videos were evaluated in a blinded manner.
The term “Rush Dyskinesia Rating Scale” and “Rush DRS” refer to an observer-based rating scale based on fixed movements. The numerical parts of the Rush DRS are recorded separately from the descriptive parts, as described by Goetz et al., in Movement Disorders, Vol. 9, No. 4, 1994, 390-394.
as §3

5-HT1d receptor = details: Sijbesma 1990; cited from earlier work
5-HT1a/5-HT1b receptor = details: cited from earlier work
[3] = Daytime plasma concentration of eltoprazine under dosing regimens
[4] = test system: Parkinson's patients with L-DOPA induced dyskinesias; experiment: Safety and tolerability in the dose finding study; type: in vivo, human; details: single oral doses 2.5, 5, 7.5 mg in PD patients
Description: This study also assessed the safety and tolerability of eltoprazine in adults with Parkinson's Disease using the following measures: a) population mean values for the change in dyskinesia ratings between the placebo and screening baseline values and any of the eltoprazine dosages used, calculated as the peak-effect on CDRS of any study medication; b) population mean values for the change in dyskinesia ratings between the placebo and screening baseline values and any of the eltoprazine dosages used, calculated as the AuC on Rush DRS of any study medication; c) any changes in the UPDRS-III total score; d) any change in the diary data set, between the baseline and placebo and any of the three study medication tests; e) any deterioration of the HADS scores after study medication compared with placebo; f) any development of depression over the course of the study period, determined by the Montgomery Asberg Depression Rating Scale (MADRS) and clinical judgment; g) comparison between the effects on Rush Dyskinesia Rating Scale (DRS) and Clinical Dyskinesia Rating Scale (CDRS) Area under the Curve (AuC) and peak of dose effects for the three study medication dosages.
After screening, each patient participated in the study for approximately 6-10 weeks. The duration of the study was about 30 weeks. […]

[5] = test system: Parkinson's patients with L-DOPA induced dyskinesias; experiment: UPDRS-III rating of parkinsonian symptoms (levodopa efficacy) after a levodopa challenge dose; type: in vivo, human; details: 5 mg and 7.5 mg doses
Description: as §1, §2
Filming occurred 30 minutes prior to, and every 30 minutes up to 180 minutes after a challenge test of L-DOPA and study medication. […] Videotaped records of each sequence were assessed by separate individual qualified raters at both of the two clinical centers.
Analyses were done on both the intention-to-treat (ITT) and per protocol (PP) population, if applicable. The change between test sessions of the highest observed Unified Parkinson's Disease Rating Scale-III (UPDRS) within each session will be calculated between the randomized placebo test session and each active test session and will be analyzed with Wilcoxon Signed Rank test on the ITT population.

For `c1cc2c(c(N3CCNCC3)c1)OCCO2` [eltoprazine, 1-(2,3-dihydro-1,4-benzodioxin-5-yl) piperazine], the “affinity for dopamine receptors” value (dopamine receptors) is listed as “no relevant affinity”, the “reduction of LID measured by the CDRS scale, compared to placebo” value ([1]; 5 mg single oral dose with 150% L-DOPA challenge, p=0.0007) is listed as “statistically significantly reduced LID” and the “reduction of LID measured by the CDRS scale, compared to placebo” value ([1]; 7.5 mg single oral dose with 150% L-DOPA challenge, p=0.0467) is listed as “statistically significantly reduced LID”. For the same compound, the “reduction of LID measured by the Rush Scale AUC” value [2] was “reduced LID in PD patients statistically significantly”, the “affinity for the 5-HT1d receptor compared with serotonin” value (5-HT1d receptor) was “lower affinity” and the “affinity for 5-HT1a versus 5-HT1b receptors, mixed agonist” value (5-HT1a/5-HT1b receptor; Schipper 1990) was “roughly equipotent affinity”. For the same compound, the “receptor selectivity of binding profile” value (5-HT1a/5-HT1b receptor; with respect to all receptors other than 5-HT1, Sijbesma 1990) was “selective 5-HT1 ligand”, the “daytime plasma concentration profile (FIG. 4)” value ([3]; 5 mg and 7.5 mg b.d. at 4 hour intervals (2.5, 5, 7.5, 10 mg compared)) was “optimizes daytime plasma concentration from 10 AM to 8 PM” and the “daytime plasma concentration profile (FIG. 3)” value ([3]; 7.5 mg twice daily at 4 or 6 hourly intervals (4, 6, 8, 12 h compared)) was “optimizes daytime plasma concentration from 10 AM to 8 PM”. The “plasma concentration of drug” value ([3]; dose of 5 mg) was “approximately 10 ng/ml”, the “plasma concentration of drug” value ([3]; dose of 7.5 mg) was “approximately 17 ng/ml” and the “plasma concentration profile (FIG. 5)” value ([3]; three times daily 2.5, 5, 7.5 mg at 4 hour intervals) was “achieve maximal plasma concentrations in the late afternoon/evening period into the night time”. For the same compound, the serious adverse events [4] was “no serious adverse events”, the tolerability [4] was “well tolerated” and the “effect on L-DOPA efficacy measured by the UPDRS score (UPDRS-III)” value [5] was “did not affect L-DOPA efficacy; also recorded: no significant change”.
